Key:
Format in all cases: in vivo
[1] = system: Arabidopsis thaliana plants; experiment: Cold/freezing stress on Arabidopsis thaliana plants, visual assessment of % leaf damage; conditions: for reduction of cold stress symptoms: Arabidopsis plants under different stress conditions
Experimental: Arabidopsis thaliana plants were grown in pots (8 cm diameter) under controlled environmental conditions at 21° C. during the day and at 19° C. during the night, under a light regiment of 9 h light and 15 h dark per day.
Chemical treatment was done 18 days after sowing. Each pot was treated with 500 μl of spray solution according to the treatment schedule below with a commercial pump spray applicator.
2) Orysastrobin (250 ppm) 3) Orysastrobin (500 ppm) 4) Pyraclostrobin (500 ppm)
After chemical treatment, the pots have been transferred to the same growth conditions for three days. Then the pots were transferred to three different environmental conditions to exert cold stress:
Control plants (A) were kept under the same conditions as described above.
Stressed plants (B) were transferred for 2 days to 6° C. under a 9-15 h day-night cycle. This cold treatment allows Arabidopsis plants to acclimate to a certain extent to the following freezing stress (−4° C., 24 h in the dark) (Wanner et al., 1999, Cold-induced freezing tolerance in Arabidopsis, Plant Physiology 120, 391-399).
Stressed plants (C) were not cold-hardened and kept for another 2 days under control environment before being transferred for one day to −4° C. without light.
After these treatments, all pots were returned to standard growth conditions (controlled environmental conditions) as described above.
3 days and 9 days after chemical treatment (3 days after recovery from freezing treatment) the trial was evaluated by visual assessment, scoring the symptoms in % leaf damage.

[2] = system: Corn seeds (Zea mays; variety Pioneer herbicide resistant 33P71); experiment: Cold stress on corn seedlings after seed treatment; conditions: second exposure to cold stress (−5° C., 2 hours, code 13)
Experimental: Corn seeds (Zea mays; variety Pioneer herbicide resistant 33P71) were treated using either:
T1: Water (untreated) T2: Pyraclostrobin (5 g active ingredient 100 kg seeds) T3. Azoxystrobin (1 g active ingredient/100 kg seeds)
Subsequently, the treated seeds were planted in plastic pots (6 cm×6 cm×7 cm) filled with sand (metro mix). Seeds were incubated in a growth chamber (Conviron) at 25° C. and 60% humidity under a dark/light cycle of 16/8 h for 5 days (seedlings were at code 10). At this point, seedlings were exposed to a temperature of −5° C. for 3 hours. Following cold stress, the viable seedlings were kept growing until they had reached code 13. At this stage, they were submitted to additional 2 hours of cold stress at −5° C. Finally, the number of damaged seedlings (%) for each seed treatment was recorded.

[3] = system: Adult Citrus trees (Citrus sinensis); experiment: Field freeze protection of adult Citrus trees by leaf application; conditions: three 1600 g/ha leaf applications at 14 to 18 day intervals
Experimental: Adult Citrus trees (Citrus sinensis) were treated by three 1600 g/ha pyraclostrobin leaf applications at 14 to 18 day intervals. Applications began shortly before the initial freeze in winter seasons. Temperatures dropped to −6° C. in three separate cold weather events. With extreme low temperatures, nothing is expected to reduce damage.

[4] = stress condition A (control plants, 21° C./19° C., no cold stress), 500 ppm spray, 9 days after chemical treatment
[5] = stress condition B (2 days 6° C. hardening, then −4° C. 24 h dark), 500 ppm spray, 3 days after recovery from freezing
[6] = stress condition C (not cold-hardened, −4° C. 24 h dark), 500 ppm spray, 3 days after recovery from freezing

Compound	reduction of cold stress symptoms [1]	leaf damage ([1]; stress condition A (control plants, 21° C./19° C., no cold stress), 250 ppm spray, 9 days after chemical treatment)	leaf damage [1, 4]	leaf damage ([1]; stress condition B (2 days 6° C. hardening, then −4° C. 24 h dark), 250 ppm spray, 3 days after recovery from freezing)	leaf damage [1, 5]	leaf damage ([1]; stress condition C (not cold-hardened, −4° C. 24 h dark), 250 ppm spray, 3 days after recovery from freezing)	leaf damage [1, 6]	number of damaged seedlings (%) ([2]; seed treatment 1 g active ingredient/100 kg seeds)	number of damaged seedlings (%) ([2]; seed treatment 5 g active ingredient 100 kg seeds)	chilling protection in citrus ([3]; temperatures dropped to −6° C.)	leaf burn symptoms and fruit drop versus untreated control plants ([3]; temperatures dropped to −6° C. in three cold weather events)
CNC(=O)/C(=N/OC)c1ccccc1CO/N=C(C)/C(=N/OC)C(/C)=N/OC [Orysastrobin, orysastrobin]	highly effective to reduce cold stress symptoms	0%	0%	0%	0%	5%	10%				
CO/C=C(/C(=O)OC)c1ccccc1Oc1cc(Oc2ccccc2C#N)ncn1 [Azoxystrobin, azoxystrobin]								38%			
pyraclostrobin	highly effective to reduce cold stress symptoms		0%		0%		30%		0%	strong chilling protection	less leaf burn symptoms and fruit drop

From patent US20090186762A1, “METHOD FOR IMPROVING THE TOLERANCE OF PLANTS TO CHILLING TEMPERATURES AND/OR FROST” (BASF SE, priority 2006, published 2009)
